These results are taken from ChEMBL document CHEMBL4811286, “Novel 1,3,4-oxadiazole compounds inhibit the tyrosinase and melanin level: Synthesis, in-vitro, and in-silico studies” (Bioorg Med Chem, 2021).

Activity calls are given as the source filed them. The rule behind the calls is not given here.

The target in data set [1] is T1, Tyrosinase (Agaricus bisporus, UniProt O42713).
T1 sequence (O42713 whole entry): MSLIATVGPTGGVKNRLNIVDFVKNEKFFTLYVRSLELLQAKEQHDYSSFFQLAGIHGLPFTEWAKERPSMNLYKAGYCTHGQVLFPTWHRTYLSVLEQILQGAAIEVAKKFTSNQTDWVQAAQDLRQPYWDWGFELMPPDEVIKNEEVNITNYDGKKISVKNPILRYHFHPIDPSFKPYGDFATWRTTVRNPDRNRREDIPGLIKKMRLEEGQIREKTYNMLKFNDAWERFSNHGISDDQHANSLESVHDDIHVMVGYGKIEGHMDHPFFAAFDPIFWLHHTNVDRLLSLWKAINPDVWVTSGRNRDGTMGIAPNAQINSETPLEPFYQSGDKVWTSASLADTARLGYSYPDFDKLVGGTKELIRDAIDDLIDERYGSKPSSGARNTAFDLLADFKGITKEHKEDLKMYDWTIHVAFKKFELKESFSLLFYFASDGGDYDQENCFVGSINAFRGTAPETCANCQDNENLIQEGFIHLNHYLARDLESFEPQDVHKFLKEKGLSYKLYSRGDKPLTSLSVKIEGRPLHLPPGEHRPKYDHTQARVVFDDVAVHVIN
Nature of the data set: Inhibition of mushroom tyrosinase using L-DOPA as substrate.

Data set [2] relates to B16-F10. Nature of the data set: Cytotoxicity against mouse B16-F10 cells assessed as reduction in cell viability upto 10 ug/ml measured after 24 hrs by MTT assay. It is filed as cell-based. To be noted: b16-f10, 24 h, dose <=10 µg/ml.
Data set [3] deals with B16-F10. Nature of the data set: Cytotoxicity against mouse B16-F10 cells assessed as reduction in cell viability at 10 to 50 ug/ml measured after 24 hrs by MTT assay. Type of data set: cell-based. To be noted: b16-f10, 24 h, dose 10-50 µg/ml.
A short description of data set [4]: Cytotoxicity against mouse B16-F10 cells assessed as cell viability at 50 ug/ml measured after 24 hrs by MTT assay relative to control. It is filed as cell-based. The conditions noted are these: at 50 µg/mL, read-out: Activity. A general note: Tetrazolium dyes change colour on reduction, which living cells bring about.
The target in data set [5] is T1, Tyrosinase. Description: Noncompetitive inhibition of mushroom tyrosinase assessed as dissociation constant using L-DOPA as substrate by Lineweaver-Burk plot analysis.
The test system of data set [6] is B16-F10. Nature of the data set: Anti-melanogenic activity in mouse B16-F10 cells assessed as reduction in alpha-MSH-induced tyrosinase expression at 10 uM incubated for 24 hrs by Western blot analysis. It is filed as functional, cell-based. On the technique in general: A western blot detects proteins with antibodies after separation by electrophoresis.
In data set [7] the test system is B16-F10. Description: Anti-melanogenic activity in mouse B16-F10 cells assessed as reduction in alpha-MSH-induced tyrosinase expression at 20 to 30 uM incubated for 24 hrs by Western blot analysis. It is filed as functional, cell-based. To be noted: dose 20-30 µM.
Data set [8] deals with B16-F10. Nature of the data set: Anti-melanogenic activity in mouse B16-F10 cells assessed as reduction in alpha-MSH-induced tyrosinase expression at 50 uM incubated for 24 hrs by Western blot analysis. It is filed as functional, cell-based.
Data set [9] deals with B16-F10. Nature of the data set: Anti-melanogenic activity against alpha-MSH-induced mouse B16-F10 cells assessed as reduction in melanin content at 10 uM incubated for 24 hrs […] relative to control. Type of data set: functional.
In data set [10] the test system is B16-F10. Description: Anti-melanogenic activity against alpha-MSH-induced mouse B16-F10 cells assessed as reduction in melanin content at 20 uM incubated for 24 hrs […] relative to control. It is filed as functional.
In data set [11] the test system is B16-F10. Nature of the data set: Anti-melanogenic activity against alpha-MSH-induced mouse B16-F10 cells assessed as reduction in melanin content at 30 uM incubated for 24 hrs […] relative to control. It is filed as functional.
Data set [12] has as its system B16-F10. Nature of the data set: Anti-melanogenic activity against alpha-MSH-induced mouse B16-F10 cells assessed as reduction in melanin content at 50 uM incubated for 24 hrs […] relative to control. It is filed as functional.
Compound in data set [13]: COc1ccccc1-c1nnc(SCC(=O)Nc2ccccc2)o1
Nature of the data set: Noncompetitive inhibition of mushroom tyrosinase assessed as Vmax at 0.0017 uM using L-DOPA as substrate by Lineweaver-Burk plot analysis. The conditions noted are these: Agaricus bisporus.

Compound in data set [14]: COc1ccccc1-c1nnc(SCC(=O)Nc2ccccc2)o1
Nature of the data set: Noncompetitive inhibition of mushroom tyrosinase assessed as Vmax at 0.0033 uM using L-DOPA as substrate by Lineweaver-Burk plot analysis. To be noted: Agaricus bisporus.

Compound in data set [15]: COc1ccccc1-c1nnc(SCC(=O)Nc2ccccc2)o1
Description: Noncompetitive inhibition of mushroom tyrosinase assessed as Vmax at 0.0066 uM using L-DOPA as substrate by Lineweaver-Burk plot analysis. The conditions noted are these: Agaricus bisporus.

Compound in data set [16]: COc1ccccc1-c1nnc(SCC(=O)Nc2ccccc2)o1
Description: Noncompetitive inhibition of mushroom tyrosinase assessed as Km at 0.0017 uM using L-DOPA as substrate by Lineweaver-Burk plot analysis. The conditions noted are these: Agaricus bisporus.

Compound in data set [17]: COc1ccccc1-c1nnc(SCC(=O)Nc2ccccc2)o1
Nature of the data set: Noncompetitive inhibition of mushroom tyrosinase assessed as Km at 0.0033 uM using L-DOPA as substrate by Lineweaver-Burk plot analysis. To be noted: Agaricus bisporus.

Compound in data set [18]: COc1ccccc1-c1nnc(SCC(=O)Nc2ccccc2)o1
Nature of the data set: Noncompetitive inhibition of mushroom tyrosinase assessed as Km at 0.0066 uM using L-DOPA as substrate by Lineweaver-Burk plot analysis. The conditions noted are these: Agaricus bisporus.

Consider `COc1cccc(-c2nnc(SCC(=O)Nc3ccccc3)o2)c1`, for which the midpoint of inhibition at Tyrosinase [1], the IC50, lay at 19 nM. Also, the Activity result was “Non-Toxic” in the data set on B16-F10 [2] and “Toxic” with B16-F10 [3].

On to `O=C(CSc1nnc(-c2ccccc2)o1)Nc1ccc(Br)cc1`, for which, at Tyrosinase [1], the midpoint of inhibition, the IC50, lay at 39 nM.

With `COc1cccc(-c2nnc(SCC(=O)Nc3ccc(I)cc3)o2)c1`, the IC50 – broadly, the point on the concentration scale where inhibition reaches its midpoint – on Tyrosinase [1] is 88 nM.

On Tyrosinase [1], `COc1ccccc1-c1nnc(SCC(=O)Nc2ccc(Br)cc2)o1` had an IC50 of 46 nM. Compared with the last molecule, the IC50 is about 1.9-fold lower.

In the case of `COc1cccc(-c2nnc(SCC(=O)Nc3ccc(Br)cc3)o2)c1`, the concentration for half-maximal inhibition (IC50) at Tyrosinase [1] came to 145 nM.

On Tyrosinase [1], `O=C(CSc1nnc(-c2ccccc2)o1)Nc1ccc(F)cc1` returned an IC50 of 396 nM.

Take `COc1ccccc1-c1nnc(SCC(=O)Nc2ccc(I)cc2)o1`: the IC50 at Tyrosinase [1] is 23 nM. In [4], the viability at 24 h, 50 ug/ml is 80%.

The molecule `COc1cccc(-c2nnc(SCC(=O)Nc3ccc(F)cc3)o2)c1` gave an IC50 against Tyrosinase [1] of 27 nM. Besides, the Activity result with B16-F10 [2] is listed as “Non-Toxic”; in the data set with B16-F10 [3], “Toxic”.

The molecule `COc1ccccc1-c1nnc(SCC(=O)Nc2ccc(F)cc2)o1` displayed an IC50 against Tyrosinase [1] of 18 nM. In data set [4], the viability at 24 h, 50 ug/ml worked out at 80%.

On Tyrosinase [1], `O=C(CSc1nnc(-c2ccccc2)o1)Nc1ccc(I)cc1` displayed a half-maximal inhibitory concentration (IC50) of 85 nM.

`O=C(CSc1nnc(-c2ccccc2)o1)Nc1ccccc1` came in with an IC50 at Tyrosinase [1] of 231 nM.

For the molecule `COc1ccccc1-c1nnc(SCC(=O)Nc2ccccc2)o1`, half-maximal inhibition at Tyrosinase [1] (IC50) was put at 3 nM. Besides, the Ki (commonly the equilibrium dissociation constant of an inhibitor or competing ligand from its target) on Tyrosinase [5] was determined as 3.1 nM. Also, the result in the data set on B16-F10 [6], in the data set with B16-F10 [7] and in the data set on B16-F10 [8] was Active. The inhibition – broadly, the relative decrease from the control value, in per cent – at 10 µM in the data set on B16-F10 [9] is 16%. Also, the inhibition at 20 µM with B16-F10 [10] amounted to 62%. The inhibition at 30 µM with B16-F10 [11] came out at 77%. The inhibition at 50 µM in the data set on B16-F10 [12] was found to be 78%. The viability at 24 h, 50 ug/ml in [4] is 80%.

B1: Tyrosinase (Agaricus bisporus), O42713 (protein)
chain: MSLIATVGPTGGVKNRLNIVDFVKNEKFFTLYVRSLELLQAKEQHDYSSFFQLAGIHGLPFTEWAKERPSMNLYKAGYCTHGQVLFPTWHRTYLSVLEQILQGAAIEVAKKFTSNQTDWVQAAQDLRQPYWDWGFELMPPDEVIKNEEVNITNYDGKKISVKNPILRYHFHPIDPSFKPYGDFATWRTTVRNPDRNRREDIPGLIKKMRLEEGQIREKTYNMLKFNDAWERFSNHGISDDQHANSLESVHDDIHVMVGYGKIEGHMDHPFFAAFDPIFWLHHTNVDRLLSLWKAINPDVWVTSGRNRDGTMGIAPNAQINSETPLEPFYQSGDKVWTSASLADTARLGYSYPDFDKLVGGTKELIRDAIDDLIDERYGSKPSSGARNTAFDLLADFKGITKEHKEDLKMYDWTIHVAFKKFELKESFSLLFYFASDGGDYDQENCFVGSINAFRGTAPETCANCQDNENLIQEGFIHLNHYLARDLESFEPQDVHKFLKEKGLSYKLYSRGDKPLTSLSVKIEGRPLHLPPGEHRPKYDHTQARVVFDDVAVHVIN
As to B1, the Vmax in data set [13] was determined as 4.97 deltaA/s; in [14], 3.64 deltaA/s; in data set [15] it was 2.27 deltaA/s. For the same molecule, the Michaelis-Menten constant (Km) in data set [16], in [17] and in data set [18] was 250 µM throughout.
